Source: US20260199299A1, “BETA CARBOLINES AS TOPICAL ANTI-INFLAMMATORY AGENTS FOR APPLICATION TO MUCOUS MEMBRANES” (President and Fellows of Harvard College, priority 2022, published 2026)

Tested on: NFκB
Assay: NFκB induction in primary monocytes (FIG. 9A-9C)
Format: cell-based

With `OCc1ccc(-c2nccc3c2[nH]c2ccccc23)o1` [Compound 8] the “suppression of NFκB induction in primary monocytes” value was “suppression of NFκB induction”.
